# From ChEMBL document CHEMBL3885861, “Open TG-GATES”
# Species: Rattus norvegicus
# Assay: Open TG-GATES - Regimen: Single
# Assay type: toxicity, organism-based, Sprague-Dawley
# Parameters: regimen Single, gender Male, age 6 weeks
# Settings: in vivo, po, 10 mg/kg, route gavage, dose level Low; for APTT / Bas / Eos / Fbg / Hb / Ht / Lym / MCH / MCHC / MCV / Mono / Neu / PT / Plat / RBC / Ret / WBC: tissue Blood; for KIDNEY_L / KIDNEY_R / KIDNEY_TOTAL: tissue Kidney; for LIVER: tissue Liver; for ALP / ALT / AST / BUN / CRE / Ca / Cl / DBIL / GLC / IP / K / LDH / Na / PL / RALB / TBIL / TC / TG / TP / gamma-GTP: tissue Plasma
smiles,measurement,setting,value
COc1cc([C@@H]2c3cc4c(cc3[C@@H](O[C@@H]3O[C@@H]5CO[C@@H](C)O[C@H]5[C@H](O)[C@H]3O)[C@H]3COC(=O)[C@H]23)OCO4)cc(OC)c1O [ETOPOSIDE],TERMINAL_BW,3 h,200.9 g
same,APTT,3 h,16.9 s
same,Bas,3 h,0%
same,Eos,3 h,1.2%
same,Fbg,3 h,201 mg/dL
same,Hb,3 h,13.4 g/dL
same,Ht,3 h,39.9%
same,Lym,3 h,76.4%
same,MCH,3 h,22.1 pg
same,MCHC,3 h,33.7%
same,MCV,3 h,65.7 fL
same,Mono,3 h,8%
same,Neu,3 h,14.8%
same,PT,3 h,12.3 s
same,Plat,3 h,115.3 x10_4/uL
same,RBC,3 h,606.6 x10_4/ul
same,Ret,3 h,10.2%
same,WBC,3 h,99.6 x10_2/uL
same,KIDNEY_L,3 h,0.9 g
same,KIDNEY_R,3 h,0.9 g
same,KIDNEY_TOTAL,3 h,1.9 g
same,LIVER,3 h,9.4 g
same,ALP,3 h,896.4 IU/L
same,ALT,3 h,34.2 IU/L
same,AST,3 h,67.2 IU/L
same,BUN,3 h,13 mg/dL
same,CRE,3 h,0.5 mg/dL
same,Ca,3 h,10.7 mg/dL
same,Cl,3 h,104.6 meq/L
same,DBIL,3 h,0.012 mg/dL
same,GLC,3 h,192.8 mg/dL
same,IP,3 h,9 mg/dL
same,K,3 h,4.5 meq/L
same,LDH,3 h,114.2 IU/L
same,Na,3 h,141.8 meq/L
same,PL,3 h,134 mg/dL
same,RALB,3 h,3.5 g/dL
same,TBIL,3 h,0.3 mg/dL
same,TC,3 h,75.8 mg/dL
same,TG,3 h,46.4 mg/dL
same,TP,3 h,5.4 g/dL
same,gamma-GTP,3 h,2 IU/L
same,TERMINAL_BW,6 h,198.3 g
same,APTT,6 h,16.9 s
same,Bas,6 h,0%
same,Eos,6 h,1%
same,Fbg,6 h,194.4 mg/dL
same,Hb,6 h,13.6 g/dL
same,Ht,6 h,40.8%
same,Lym,6 h,79.8%
same,MCH,6 h,21.6 pg
same,MCHC,6 h,33.3%
same,MCV,6 h,64.9 fL
same,Mono,6 h,6.4%
same,Neu,6 h,13.2%
same,PT,6 h,11.8 s
same,Plat,6 h,110.4 x10_4/uL
same,RBC,6 h,629.6 x10_4/ul
same,Ret,6 h,9.8%
same,WBC,6 h,78.9 x10_2/uL
same,KIDNEY_L,6 h,1 g
same,KIDNEY_R,6 h,1 g
same,KIDNEY_TOTAL,6 h,2 g
same,LIVER,6 h,8.6 g
same,ALP,6 h,862.6 IU/L
same,ALT,6 h,35 IU/L
same,AST,6 h,66.8 IU/L
same,BUN,6 h,10.8 mg/dL
same,CRE,6 h,0.6 mg/dL
same,Ca,6 h,10.5 mg/dL
same,Cl,6 h,104.4 meq/L
same,DBIL,6 h,0.02 mg/dL
same,GLC,6 h,195.4 mg/dL
same,IP,6 h,10.2 mg/dL
same,K,6 h,4.6 meq/L
same,LDH,6 h,99.4 IU/L
same,Na,6 h,142 meq/L
same,PL,6 h,128 mg/dL
same,RALB,6 h,3.3 g/dL
same,TBIL,6 h,0.4 mg/dL
same,TC,6 h,72.2 mg/dL
same,TG,6 h,42.6 mg/dL
same,TP,6 h,5.2 g/dL
same,gamma-GTP,6 h,0.8 IU/L
same,TERMINAL_BW,9 h,198.7 g
same,APTT,9 h,16.8 s
same,Bas,9 h,0%
same,Eos,9 h,0.6%
same,Fbg,9 h,184.6 mg/dL
same,Hb,9 h,13.5 g/dL
same,Ht,9 h,39.7%
same,Lym,9 h,77%
same,MCH,9 h,22.1 pg
same,MCHC,9 h,33.9%
same,MCV,9 h,65.1 fL
same,Mono,9 h,6.8%
same,Neu,9 h,15.8%
same,PT,9 h,11 s
same,Plat,9 h,113.8 x10_4/uL
same,RBC,9 h,611 x10_4/ul
same,Ret,9 h,8.6%
same,WBC,9 h,75.9 x10_2/uL
same,KIDNEY_L,9 h,0.9 g
same,KIDNEY_R,9 h,1 g
same,KIDNEY_TOTAL,9 h,1.9 g
same,LIVER,9 h,8.1 g
same,ALP,9 h,777.2 IU/L
same,ALT,9 h,32.8 IU/L
same,AST,9 h,64.6 IU/L
same,BUN,9 h,10.2 mg/dL
same,CRE,9 h,0.6 mg/dL
same,Ca,9 h,10.6 mg/dL
same,Cl,9 h,105.6 meq/L
same,DBIL,9 h,0.036 mg/dL
same,GLC,9 h,198.8 mg/dL
same,IP,9 h,10.4 mg/dL
same,K,9 h,4.6 meq/L
same,LDH,9 h,74.6 IU/L
same,Na,9 h,143.4 meq/L
same,PL,9 h,127.2 mg/dL
same,RALB,9 h,3.4 g/dL
same,TBIL,9 h,0.4 mg/dL
same,TC,9 h,70.8 mg/dL
same,TG,9 h,35.2 mg/dL
same,TP,9 h,5.3 g/dL
same,gamma-GTP,9 h,1.6 IU/L
same,TERMINAL_BW,24 h,209.8 g
same,APTT,24 h,15.8 s
same,Bas,24 h,0%
same,Eos,24 h,1%
same,Fbg,24 h,206.6 mg/dL
same,Hb,24 h,13.3 g/dL
same,Ht,24 h,39.5%
same,Lym,24 h,79.2%
same,MCH,24 h,21.7 pg
same,MCHC,24 h,33.7%
same,MCV,24 h,64.3 fL
same,Mono,24 h,6.6%
same,Neu,24 h,13.6%
same,PT,24 h,11.6 s
same,Plat,24 h,108.6 x10_4/uL
same,RBC,24 h,613.8 x10_4/ul
same,Ret,24 h,8.9%
same,WBC,24 h,89.3 x10_2/uL
same,KIDNEY_L,24 h,1 g
same,KIDNEY_R,24 h,1 g
same,KIDNEY_TOTAL,24 h,2 g
same,LIVER,24 h,10.2 g
same,ALP,24 h,1017 IU/L
same,ALT,24 h,33 IU/L
same,AST,24 h,68 IU/L
same,CRE,24 h,0.6 mg/dL
same,Ca,24 h,11.1 mg/dL
same,Cl,24 h,104.6 meq/L
same,DBIL,24 h,0.012 mg/dL
same,GLC,24 h,200.6 mg/dL
same,IP,24 h,8.1 mg/dL
same,K,24 h,4.6 meq/L
same,LDH,24 h,109.6 IU/L
same,Na,24 h,141.6 meq/L
same,PL,24 h,155.2 mg/dL
same,RALB,24 h,3.5 g/dL
same,TBIL,24 h,0.3 mg/dL
same,TC,24 h,87.8 mg/dL
same,TG,24 h,82.6 mg/dL
same,TP,24 h,5.5 g/dL
same,gamma-GTP,24 h,1.4 IU/L
